In the NIST ThermoML archive (doi:10.1021/acs.jced.6b00192):

Conditions: Liquid, Vibrating tube method

CCCCOCCO [2-butoxyethan-1-ol]
mass density [kg/m3]
Conditions | 283.15 K | 293.15 K | 303.15 K | 313.15 K | 323.15 K | 333.15 K | 343.15 K | 353.15 K | 363.15 K
100 kPa | 907.9 | 900.5 | 891.8 | 883.5 | 874 | 865.6 | 856.5 | 847.5 | 838.2
1000 kPa | 908.3 | 900.6 | 892.1 | 884 | 875 | 866.1 | 857.4 | 848.4 | 839.4
3000 kPa | 909.9 | 902.2 | 893.9 | 885.6 | 876.5 | 868 | 859.3 | 850.5 | 841.4
5000 kPa | 911 | 903.2 | 895.4 | 887.1 | 878.1 | 869.5 | 861.1 | 852.2 | 843.4
10000 kPa | 914.2 | 906.8 | 898.9 | 890.7 | 881.9 | 873.5 | 865.1 | 856.7 | 847.9
15000 kPa | 917.1 | 910 | 902 | 894.1 | 885.5 | 877.3 | 869.1 | 860.9 | 852.6
20000 kPa | 920 | 912.9 | 905.5 | 897.3 | 889.1 | 880.9 | 873.2 | 864.8 | 856.4
25000 kPa | 922.8 | 915.9 | 908.7 | 900.7 | 892.1 | 884.4 | 876.5 | 868.7 | 860.4
30000 kPa | 925.6 | 918.8 | 911.8 | 903.6 | 895.4 | 887.6 | 880.1 | 872.3 | 864.4
35000 kPa | 928.4 | 921.4 | 914.5 | 906.7 | 898.5 | 890.8 | 883.5 | 875.9 | 868.1
40000 kPa | 930.9 | 924 | 916.7 | 909.4 | 901.6 | 894 | 886.7 | 879.2 | 871.8
50000 kPa | 935.7 | 929.5 | 921.8 | 915.1 | 907.3 | 900.1 | 893 | 885.6 | 878.4
60000 kPa | 940.5 | 933.9 | 927.1 | 920.1 | 912.9 | 905.7 | 898.6 | 891.8 | 884.8

CCCCOCCOCCO [3,6-dioxa-1-decanol]
mass density [kg/m3]
Conditions | 283.15 K | 293.15 K | 303.15 K | 313.15 K | 323.15 K | 333.15 K | 343.15 K | 353.15 K | 363.15 K
100 kPa | 960.4 | 952.4 | 943.8 | 935.5 | 927 | 917.8 | 909.1 | 901.1 | 892.6
1000 kPa | 961.3 | 952.9 | 944.2 | 935.9 | 927.3 | 918.7 | 910.5 | 902.1 | 893.2
3000 kPa | 962.6 | 954.3 | 946 | 937.2 | 928.8 | 920.7 | 912.35 | 903.9 | 894.9
5000 kPa | 963.4 | 955.2 | 947 | 938.8 | 930.3 | 922.2 | 913.6 | 905.3 | 896.7
10000 kPa | 966.5 | 958.4 | 950.3 | 942 | 933.8 | 925.7 | 917.6 | 909.3 | 900.4
15000 kPa | 969.4 | 961.2 | 953 | 945.2 | 937.2 | 929.2 | 921.3 | 913.1 | 904.8
20000 kPa | 971.9 | 964 | 956 | 948.4 | 940.4 | 932.5 | 924.7 | 916.8 | 908.5
25000 kPa | 974.5 | 966.9 | 959.1 | 951.2 | 943.5 | 935.5 | 928.1 | 920.3 | 912.1
30000 kPa | 977.1 | 969.6 | 962 | 953.8 | 946.4 | 939 | 931.3 | 923.7 | 915.7
35000 kPa | 979.1 | 972 | 964.7 | 956.9 | 949.5 | 942 | 934.4 | 927.1 | 919.2
40000 kPa | 981.4 | 974.4 | 967.1 | 959.7 | 952.5 | 945.2 | 937.3 | 930.3 | 922.7
50000 kPa | 986.9 | 979.7 | 972.2 | 965 | 958.2 | 950.6 | 943.2 | 936.3 | 929.1
60000 kPa | 990.4 | 983.9 | 977.1 | 969.7 | 963.4 | 956 | 948.8 | 942.2 | 935.2

CCCCOCCOCCOCCCC [5,8,11-trioxapentadecane]
mass density [kg/m3]
Conditions | 283.15 K | 293.15 K | 303.15 K | 313.15 K | 323.15 K | 333.15 K | 343.15 K | 353.15 K | 363.15 K
100 kPa | 891.3 | 882.9 | 874.5 | 866.1 | 857.2 | 849.1 | 840.4 | 832.4 | 823.4
1000 kPa | 891.8 | 883.1 | 875.1 | 866.41 | 858.2 | 850 | 841.7 | 833 | 824.8
3000 kPa | 893.2 | 884.8 | 876.6 | 868.1 | 859.8 | 851.6 | 843.5 | 835.1 | 827.1
5000 kPa | 894.3 | 885.9 | 878.2 | 869.8 | 861.5 | 853.3 | 845.5 | 836.7 | 828.7
10000 kPa | 897.7 | 889.6 | 881.8 | 873.5 | 865.4 | 857.5 | 849.8 | 841.4 | 833.5
15000 kPa | 900.9 | 892.9 | 885.2 | 877.2 | 869.2 | 861.4 | 853.7 | 846 | 838.4
20000 kPa | 904.3 | 896.1 | 888.42 | 880.7 | 873.1 | 865.4 | 857.9 | 850.3 | 842.8
25000 kPa | 906.9 | 899.3 | 891.8 | 884.1 | 876.5 | 869 | 861.6 | 854 | 846.8
30000 kPa | 909.9 | 902.3 | 894.9 | 887.1 | 879.8 | 872.6 | 865.3 | 857.9 | 850.9
35000 kPa | 912.8 | 905.1 | 897.9 | 890.5 | 883.1 | 875.9 | 868.9 | 861.6 | 854.9
40000 kPa | 915.3 | 907.9 | 900.8 | 893.3 | 886.3 | 879.5 | 872.3 | 865.1 | 858.5
50000 kPa | 920.5 | 913.6 | 906.4 | 899.4 | 892.4 | 885.5 | 878.9 | 871.5 | 865.6
60000 kPa | 925.4 | 918.2 | 911.8 | 904.9 | 898.8 | 891.6 | 884.7 | 878.2 | 872
